Results on ten compounds are retold here after ChEMBL document CHEMBL1201862, “PubChem BioAssay data set” (2004).

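Grown in 96-well plates, cells were treated for 48 hours with each compound at five concentrations. Insufficient inhibition: endpoint recorded as highest concentration tested. Here, GI50 denotes the concentration required for 50% inhibition of growth.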 The source made the active and inactive calls. Rule as the data show it: active = GI50 up to about 1.1 µM and inactive = higher.

Test systems include A549; ACHN; BT-549; CCRF-CEM; COLO 205; DU-145; HCT-15; HOP-62; KM12; NCI-H23; OVCAR-4; OVCAR-8; PC-3; RPMI-8226; RXF 393; SF-295; SF-539; SNB-75; U-251; UACC-62.
Assay in all cases: NCI anticancer screen, dose series, 48 h

`CNC(=O)N(C1=NCC(C)S1)c1ccc(C)c(C)c1` (stereo not given): the GI50 was 6.52 µM (inactive) in the assay on A549; 12 µM (inactive) in the assay on ACHN; 27.3 µM (inactive) in the assay on BT-549; 2.39 µM (inactive) with CCRF-CEM; 3.56 µM (inactive) with COLO 205; 7.5 µM (inactive) in the assay with DU-145. Also, the GI50 is 2.77 µM with HCT-15; 5.98 µM (inactive) in the assay on HOP-62; 3.15 µM (inactive) in the assay with KM12; 7.08 µM (inactive) in the assay with NCI-H23; 13.6 µM (inactive) in the assay on OVCAR-4; 4.74 µM (inactive) with OVCAR-8. Moreover, the GI50 in the assay with PC-3 was 3.98 µM (inactive); with RPMI-8226, 2.81 µM (inactive); with RXF 393 it was 2.46 µM (inactive); in the assay on SF-295, 3.17 µM (inactive); in the assay on SF-539, 2.62 µM (inactive); in the assay with SNB-75 it was 1.31 µM (inactive). The GI50 with U-251 is 3.59 µM (inactive); in the assay with UACC-62, 3.56 µM (inactive).

On to `O=c1[nH]c(=O)n(C2C(CO)OC(CO)C2O)cc1F` (stereo not given), for which the GI50 in the assay with A549, in the assay on ACHN, with BT-549, in the assay with CCRF-CEM, with COLO 205 and in the assay on DU-145 was > 100 µM (inactive) in each case. The GI50 was over 100 µM with HCT-15; > 100 µM (inactive) in the assay on HOP-62; > 100 µM (inactive) in the assay with KM12; > 100 µM (inactive) in the assay on NCI-H23; > 100 µM (inactive) with OVCAR-4; > 100 µM (inactive) in the assay on OVCAR-8. The GI50 in the assay with PC-3, with RPMI-8226, in the assay on RXF 393, with SF-295, in the assay with SF-539 and in the assay with SNB-75 was > 100 µM (inactive) throughout. The GI50 in the assay with U-251 and with UACC-62 was > 100 µM (inactive) each time.

Turning to `COC(=O)[C@@H]1C[C@@H]2c3ccccc3N(S(=O)(=O)c3ccccc3)[C@@H]2N1C(=O)OC`, the GI50 was > 100 µM (inactive) in the assay on A549; > 100 µM (inactive) in the assay on ACHN; > 100 µM (inactive) with BT-549; > 100 µM (inactive) with CCRF-CEM; > 100 µM (inactive) with COLO 205; 35.2 µM (inactive) in the assay with DU-145. For the same compound, the GI50 is over 100 µM in the assay with HCT-15; > 100 µM (inactive) with HOP-62; > 100 µM (inactive) in the assay on KM12; 37.1 µM (inactive) with NCI-H23; > 100 µM (inactive) in the assay with OVCAR-4; > 100 µM (inactive) in the assay with OVCAR-8. Besides, the GI50 in the assay with PC-3, with RPMI-8226, with RXF 393, in the assay on SF-295, in the assay on SF-539 and in the assay on SNB-75 was > 100 µM (inactive) each time. Moreover, the GI50 with U-251 and with UACC-62 was > 100 µM (inactive) in each case.

In the case of `CCOC(=O)c1ccc(C(=O)/C(C(=O)OC(C)(C)C)=C2\CCCN2C)n1C`, the GI50 with A549 was 61.2 µM (inactive); in the assay on ACHN, 73.5 µM (inactive); with BT-549, 39.7 µM (inactive); in the assay with CCRF-CEM it was 72.9 µM (inactive); with COLO 205 it was 96.8 µM (inactive); in the assay with DU-145, > 100 µM (inactive). Also, the GI50 was 95.1 µM in the assay on HCT-15; 95.3 µM (inactive) with HOP-62; 55.3 µM (inactive) with KM12; 73.3 µM (inactive) with NCI-H23; 46.6 µM (inactive) with OVCAR-4; 80.4 µM (inactive) in the assay on OVCAR-8. For the same compound, the GI50 is 73.1 µM (inactive) with PC-3; 69.7 µM (inactive) in the assay with RPMI-8226; > 100 µM (inactive) with RXF 393; 28.7 µM (inactive) in the assay on SF-295; > 100 µM (inactive) in the assay on SF-539; 15.9 µM (inactive) in the assay with SNB-75. Besides, the GI50 with U-251 is > 100 µM (inactive); in the assay with UACC-62 it was 44.2 µM (inactive).

Regarding `O=[N+]([O-])C(/C(Cl)=C(\Cl)Br)=C(/Cl)SCc1ccccc1`, the GI50 in the assay with A549 was 16.3 µM (inactive); in the assay on ACHN, 2.97 µM (inactive); in the assay on BT-549, 2.56 µM (inactive); in the assay on CCRF-CEM, 0.507 µM (active); in the assay on COLO 205, 1.98 µM (inactive); in the assay on DU-145, 13 µM (inactive). The GI50 in the assay on HCT-15 was 2.9 µM; in the assay with HOP-62 it was 15.1 µM (inactive); with KM12, 14.4 µM (inactive); in the assay on NCI-H23 it was 5.71 µM (inactive); in the assay on OVCAR-4 it was 3.87 µM (inactive); in the assay on OVCAR-8, 2.26 µM (inactive). Moreover, the GI50 in the assay on PC-3 is 3.84 µM (inactive); in the assay on RPMI-8226 it was 1.72 µM (inactive); with RXF 393, 2.35 µM (inactive); in the assay with SF-295, 16.9 µM (inactive); in the assay with SF-539 it was 8.83 µM (inactive); in the assay on SNB-75 it was 3.26 µM (inactive). The GI50 in the assay on U-251 is 6.46 µM (inactive); with UACC-62, 3.2 µM (inactive).

Consider `O=C(NNC(=S)Nc1cccc(Cl)c1)c1cc(-c2ccccc2)nc2ccccc12`, for which the GI50 is 16.3 µM (inactive) with A549; 16.3 µM (inactive) with ACHN; 19.4 µM (inactive) in the assay on BT-549; 10.2 µM (inactive) in the assay with CCRF-CEM; 12.9 µM (inactive) in the assay on COLO 205; 15.6 µM (inactive) with DU-145. Further, the GI50 was 14.6 µM in the assay with HCT-15; 16.3 µM (inactive) in the assay on HOP-62; 18.5 µM (inactive) with KM12; 13.8 µM (inactive) in the assay with NCI-H23; 14.3 µM (inactive) in the assay with OVCAR-4; 20.7 µM (inactive) in the assay with OVCAR-8. Moreover, the GI50 with PC-3 is 15.1 µM (inactive); in the assay with RPMI-8226, 6.68 µM (inactive); with RXF 393 it was 16.1 µM (inactive); in the assay with SF-295 it was 11.7 µM (inactive); in the assay with SF-539, 15.1 µM (inactive); in the assay with SNB-75 it was 23.8 µM (inactive). For the same compound, the GI50 with U-251 was 12.3 µM (inactive); in the assay on UACC-62, 13.4 µM (inactive).

On to `S=c1ssc2c3ssc(=S)c3n(Cc3ccccc3)c12`, for which the GI50 was > 100 µM (inactive) in the assay on A549; > 100 µM (inactive) with ACHN; > 100 µM (inactive) in the assay on BT-549; 17.2 µM (inactive) in the assay with CCRF-CEM; > 100 µM (inactive) in the assay with COLO 205; 54 µM (inactive) with DU-145. Moreover, the GI50 is 39.3 µM with HCT-15; > 100 µM (inactive) in the assay on HOP-62; > 100 µM (inactive) in the assay on KM12; > 100 µM (inactive) in the assay with NCI-H23; > 100 µM (inactive) with OVCAR-4; 74.8 µM (inactive) in the assay on OVCAR-8. Moreover, the GI50 is 74.6 µM (inactive) in the assay on PC-3; > 100 µM (inactive) with RPMI-8226; 0.494 µM (active) with RXF 393; > 100 µM (inactive) in the assay on SF-295; 21.3 µM (inactive) with SF-539; 98.4 µM (inactive) in the assay with SNB-75. In addition, the GI50 with U-251 is 60.5 µM (inactive); with UACC-62, 40.3 µM (inactive).

Consider `CC(=O)OC(C)c1cc2c(s1)C(=O)c1ccsc1C2=O` (stereo not given), for which the GI50 was 1.37 µM (inactive) in the assay with A549; 0.158 µM (active) with ACHN; 0.167 µM (active) in the assay on BT-549; 0.204 µM (active) in the assay on CCRF-CEM; 0.776 µM (active) with COLO 205; 0.118 µM (active) in the assay on DU-145. The GI50 with HCT-15 is 0.124 µM; in the assay with HOP-62 it was 0.137 µM (active); with KM12, 0.169 µM (active); with NCI-H23 it was 0.0575 µM (active); with OVCAR-4 it was 0.664 µM (active); in the assay with OVCAR-8 it was 0.228 µM (active). Besides, the GI50 in the assay with PC-3 was 0.041 µM (active); in the assay with RPMI-8226 it was 0.0826 µM (active); with RXF 393, 0.206 µM (active); in the assay on SF-295 it was 0.113 µM (active); in the assay on SF-539, 0.0528 µM (active); with SNB-75 it was 0.148 µM (active). Besides, the GI50 in the assay on U-251 is 0.165 µM (active); in the assay with UACC-62, 0.0811 µM (active).

`O=C(CCCC1Cc2ccccc2C1=O)c1ccccc1` (stereo not given): the GI50 was 50 µM (inactive) in the assay with A549; 98.4 µM (inactive) in the assay on ACHN; 38.6 µM (inactive) in the assay with BT-549; 66.5 µM (inactive) in the assay on CCRF-CEM; 93.8 µM (inactive) in the assay with COLO 205; > 100 µM (inactive) with DU-145. Besides, the GI50 in the assay on HCT-15 is 74.8 µM; in the assay with HOP-62 it was > 100 µM (inactive); with KM12, 96.4 µM (inactive); with NCI-H23, 60.1 µM (inactive); in the assay with OVCAR-4, 59.3 µM (inactive); with OVCAR-8, 79.6 µM (inactive). Further, the GI50 was 35.1 µM (inactive) in the assay on PC-3; 46.9 µM (inactive) with RPMI-8226; 52.5 µM (inactive) in the assay with RXF 393; 47.5 µM (inactive) with SF-295; > 100 µM (inactive) in the assay on SF-539; 70.5 µM (inactive) in the assay with SNB-75. Further, the GI50 was 38.6 µM (inactive) in the assay with U-251 and 69.5 µM (inactive) in the assay with UACC-62.

Regarding `Cc1cc(NS(=O)(=O)c2ccc(NC(=O)c3ccc4nc5ccccc5c(Nc5ccc(S(N)(=O)=O)cc5)c4c3)cc2)no1`, the GI50 is 24.6 µM (inactive) with A549; 21.3 µM (inactive) with ACHN; 28 µM (inactive) in the assay with BT-549; 22.6 µM (inactive) with CCRF-CEM; 20.6 µM (inactive) in the assay with COLO 205; 48.3 µM (inactive) with DU-145. In addition, the GI50 was 19.2 µM with HCT-15; 33.6 µM (inactive) in the assay on HOP-62; 22.9 µM (inactive) with KM12; 33 µM (inactive) in the assay on NCI-H23; 27.4 µM (inactive) in the assay on OVCAR-4; 24.6 µM (inactive) in the assay with OVCAR-8. For the same compound, the GI50 in the assay on PC-3 is 32.3 µM (inactive); in the assay on RPMI-8226, 24.7 µM (inactive); in the assay with RXF 393, 23.4 µM (inactive); in the assay with SF-295 it was 26.6 µM (inactive); in the assay on SF-539 it was 27.9 µM (inactive); with SNB-75 it was 38.2 µM (inactive). The GI50 in the assay with U-251 is 25.5 µM (inactive); with UACC-62 it was 29.7 µM (inactive).
